Reference: the NIST ThermoML archive (doi:10.1021/acs.jced.5b00197)

Experiment: refractive index (other wavelength) (dimensionless); xn = mol fraction of the nth substance listed
Details: 94.64 kPa, Liquid, Standard Abbe refractometry

CC(=O)O [acetic acid] + Cc1ccccc1
refractive index
Details | Wavelength=404.7 nm | Wavelength=435.8 nm | Wavelength=486.1 nm | Wavelength=546.1 nm | Wavelength=587.6 nm | Wavelength=632.8 nm | Wavelength=644 nm | Wavelength=706.5 nm
293.15 K, x1 = 0.146 | 1.51185 | 1.50406 | 1.49519 | 1.48808 | 1.4846 | 1.48156 | 1.48087 | 1.47771
293.15 K, x1 = 0.277 | 1.49627 | 1.48902 | 1.48081 | 1.47416 | 1.47093 | 1.4681 | 1.46744 | 1.46997
293.15 K, x1 = 0.397 | 1.48254 | 1.47576 | 1.4681 | 1.46191 | 1.45889 | 1.45622 | 1.4556 | 1.4528
293.15 K, x1 = 0.506 | 1.46794 | 1.46165 | 1.45457 | 1.44883 | 1.44603 | 1.44355 | 1.44297 | 1.44033
293.15 K, x1 = 0.605 | 1.45403 | 1.44826 | 1.44171 | 1.43642 | 1.43382 | 1.43151 | 1.43097 | 1.42851
293.15 K, x1 = 0.697 | 1.43966 | 1.43437 | 1.4285 | 1.42367 | 1.42129 | 1.41917 | 1.41867 | 1.41635
293.15 K, x1 = 0.782 | 1.42556 | 1.42081 | 1.41549 | 1.41115 | 1.40899 | 1.40703 | 1.40657 | 1.40444
293.15 K, x1 = 0.859 | 1.41172 | 1.40749 | 1.40275 | 1.39886 | 1.39688 | 1.3951 | 1.39469 | 1.39271
293.15 K, x1 = 0.897 | 1.40081 | 1.397 | 1.39273 | 1.38919 | 1.38738 | 1.38572 | 1.38534 | 1.38353
293.15 K, x1 = 0.932 | 1.39511 | 1.39153 | 1.3875 | 1.38415 | 1.38242 | 1.38084 | 1.38047 | 1.37874
293.15 K, x1 = 0.967 | 1.38917 | 1.38582 | 1.38206 | 1.37892 | 1.37727 | 1.37577 | 1.37542 | 1.37375
293.15 K, x1 = 1 | 1.38345 | 1.38034 | 1.37681 | 1.37386 | 1.3723 | 1.37087 | 1.37055 | 1.36896
298.15 K, x1 = 0.146 | 1.50896 | 1.50121 | 1.49239 | 1.48532 | 1.48187 | 1.47884 | 1.47816 | 1.47502
298.15 K, x1 = 0.277 | 1.4934 | 1.48619 | 1.47801 | 1.47142 | 1.46821 | 1.46538 | 1.46473 | 1.46178
298.15 K, x1 = 0.397 | 1.47979 | 1.47305 | 1.46545 | 1.45928 | 1.45629 | 1.45365 | 1.45303 | 1.45023
298.15 K, x1 = 0.506 | 1.46521 | 1.45896 | 1.45191 | 1.44622 | 1.44342 | 1.44095 | 1.44038 | 1.43776
298.15 K, x1 = 0.605 | 1.45129 | 1.44555 | 1.43909 | 1.43383 | 1.43125 | 1.42896 | 1.42842 | 1.42598
298.15 K, x1 = 0.697 | 1.43707 | 1.43182 | 1.42596 | 1.42117 | 1.41881 | 1.41669 | 1.41619 | 1.4139
298.15 K, x1 = 0.782 | 1.42305 | 1.41834 | 1.41304 | 1.40874 | 1.40658 | 1.40463 | 1.40417 | 1.40417
298.15 K, x1 = 0.859 | 1.41005 | 1.40512 | 1.40043 | 1.39655 | 1.3946 | 1.39284 | 1.39242 | 1.39049
298.15 K, x1 = 0.897 | 1.39862 | 1.39482 | 1.3906 | 1.38706 | 1.38527 | 1.38364 | 1.38326 | 1.38144
298.15 K, x1 = 0.932 | 1.39296 | 1.38941 | 1.3854 | 1.38208 | 1.38035 | 1.37878 | 1.37842 | 1.37669
298.15 K, x1 = 0.967 | 1.3871 | 1.38379 | 1.38002 | 1.37691 | 1.37526 | 1.37375 | 1.37341 | 1.37177
298.15 K, x1 = 1 | 1.38126 | 1.37816 | 1.37466 | 1.37174 | 1.37018 | 1.36876 | 1.36844 | 1.36686
303.15 K, x1 = 0.146 | 1.50611 | 1.49841 | 1.48963 | 1.48261 | 1.47918 | 1.47618 | 1.47549 | 1.47237
303.15 K, x1 = 0.277 | 1.4905 | 1.48332 | 1.47522 | 1.46865 | 1.46547 | 1.46268 | 1.46203 | 1.45908
303.15 K, x1 = 0.397 | 1.47698 | 1.47026 | 1.46273 | 1.45661 | 1.45363 | 1.451 | 1.45039 | 1.44761
303.15 K, x1 = 0.506 | 1.46241 | 1.45621 | 1.44918 | 1.44352 | 1.44075 | 1.4383 | 1.43773 | 1.43513
303.15 K, x1 = 0.605 | 1.44837 | 1.44266 | 1.43626 | 1.43107 | 1.42851 | 1.42623 | 1.42569 | 1.42326
303.15 K, x1 = 0.697 | 1.4344 | 1.42918 | 1.42331 | 1.41861 | 1.41625 | 1.41415 | 1.41365 | 1.41136
303.15 K, x1 = 0.782 | 1.42104 | 1.41634 | 1.41106 | 1.40674 | 1.4046 | 1.40267 | 1.40221 | 1.4001
303.15 K, x1 = 0.859 | 1.40698 | 1.40281 | 1.39813 | 1.3943 | 1.39235 | 1.39059 | 1.39018 | 1.38824
303.15 K, x1 = 0.897 | 1.39635 | 1.3926 | 1.38838 | 1.3849 | 1.38309 | 1.38146 | 1.38109 | 1.37929
303.15 K, x1 = 0.932 | 1.3908 | 1.38725 | 1.38329 | 1.37997 | 1.37826 | 1.37671 | 1.37634 | 1.37461
303.15 K, x1 = 0.967 | 1.38499 | 1.38168 | 1.37795 | 1.37485 | 1.37321 | 1.37172 | 1.37138 | 1.36976
303.15 K, x1 = 1 | 1.37917 | 1.37611 | 1.37261 | 1.36968 | 1.36815 | 1.36675 | 1.36643 | 1.36485
